Like-named read-outs stand apart in the source and are kept apart here.
Assays:
[1] = acute toxicity, intraperitoneal (Table 2); details: mouse, in vivo, ip, mice, approximate values
From the text: ^2) Mice. Intraperitoneal administration. Approximate values

[2] = tested on: clonic cramps caused by Pentetrazol; test: anti-convulsive action against clonic spasms caused by Pentetrazol (60 mg/kg s.c.), inclined screen (Table 2); format: in vivo, female Swiss mice; details: Mus musculus, mice, oral, 30 minutes before s.c. 60 mg/kg Pentetrazol
Protocol: As a pharmacological test of the anti-convulsive action against clonic spasms caused by Pentetrazol, the test substances were administered orally to groups of from 8 to 10 female Swiss mice weighing from 20 to 25 g, 30 minutes before subcutaneous administration of 60 mg/kg of Pentetrazol.
In the untreated animals, this dose of Pentetrazol caused clonic cramps, as a result of which the mice slid off an inclined screen.
Anti-convulsive agents prevent the cramps and the sliding off the screen, the degree of prevention depending on the dose. The ED50 was taken to be the dose after administration of which 50% of the treated animals remained on the screen.
^1) Action against clonic cramps caused by Pentetrazol in mice. Oral
administration 30 minutes before subcutaneous administration of 60 mg/kg

[3] = tested on: minimum Pentetrazol-induced cramp; test: minimum clonic cramp after subcutaneous administration of 70 mg/kg of Pentetrazol (Table 3); format: in vivo, mice; details: for ED50: Mus musculus, 0.75 h, read-out: Minimum Pentetrazol-induced cramp, ED50
[4] = tested on: maximum Pentetrazol-induced extension; test: maximum tonic extension spasm after subcutaneous administration of 121 mg/kg of Pentetrazol (Table 3); format: in vivo, mice; details: for ED50: Mus musculus, read-out: Maximum Pentetrazol-induced extension, ED50
in vivo = details: for LD50: mouse, in vivo
Protocol: The comparative experiments in Table 3 were carried out with anhydro-2-mercapto-4-methyl-5-(3'-chlorophenyl)-1,3,4-thiadiazolium hydroxide, referred to as substance A in the Table and in the subsequent text.

maximum electric shock = test: maximum tonic electro-induced cramp (Table 3); format: in vivo, mice; details: for ED50: Mus musculus, read-out: Maximum electric shock, ED50
[5] = mice, oral, 70 mg/kg Pentetrazol s.c., observed 45 minutes after Pentetrazol
[6] = mice, oral, 121 mg/kg Pentetrazol s.c.
[7] = mice, oral, tonic cramps induced by electric shock

Question: Which results are given for `C[n+]1nc([S-])sc1-c1cccc(Cl)c1` [drawing 15]?
Answer: LD50 [1]: > 1000 mg/kg; ED50 [2]: 3.2 mg/kg

Question: Which results are given for `C[n+]1nc([S-])sc1-c1cccc(F)c1`?
Answer: LD50 [1]: 1000 mg/kg; ED50 [2]: 2.2 mg/kg

Question: What does the source list for `CCC[n+]1nc([S-])sc1-c1ccc(Cl)cc1`?
Answer: LD50 [1]: 681 mg/kg; ED50 [2]: 32 mg/kg

Question: What does the source list for `C[n+]1nc([S-])sc1-c1ccc(Br)cc1`?
Answer: LD50 [1]: > 1000 mg/kg; ED50 [2]: 46 mg/kg

Question: For `C[n+]1nc([S-])sc1-c1ccc(F)cc1`, which LD50 [1] is on record?
Answer: > 1000 mg/kg

Question: And the ED50 [2]?
Answer: 2.2 mg/kg

Question: Which ED50 [3, 5] does the source give for `C[n+]1nc([S-])sc1-c1cccc(Cl)c1` [Substance A, anhydro-2-mercapto-4-methyl-5-(3'-chlorophenyl)-1,3,4-thiadiazolium hydroxide] here?
Answer: 7 mg/kg

Question: And the “activity in counteracting clonic spasms induced by Pentetrazol, compared with Phenobarbital and Phenytoin” value ([3]; in words)?
Answer: more active in counteracting clonic spasms induced by Pentetrazol than is Phenobarbital and above all than is Phenytoin

Question: What about the ED50 [4, 6] of the same molecule?
Answer: 10 mg/kg

Question: What about the “toxicity compared with Phenobarbital and Phenytoin” value (in vivo; in words) of the same molecule?
Answer: markedly less than that of Phenobarbital and Phenytoin

Question: And the LD50 (in vivo)?
Answer: > 1000 mg/kg

Question: What about the ED50 (maximum electric shock; [7]) of the same molecule?
Answer: 23 mg/kg

Question: With `CCC[n+]1nc([S-])sc1-c1ccccc1` as the molecule, how does the LD50 [1] read?
Answer: 68.1 mg/kg

Question: What about the ED50 [2] of the same molecule?
Answer: 22 mg/kg

Question: Which “activity against clonic spasms induced by Pentetrazol” value ([3]; in words) does the source give for `O=C1NC(=O)C(c2ccccc2)(c2ccccc2)N1` [Phenytoin] here?
Answer: inactive

Question: And the “Minimum Pentetrazol-induced cramp, ED50” value [3, 5]?
Answer: inactive

Question: And the ED50 [4, 6]?
Answer: 22 mg/kg

Question: What about the ED50 (maximum electric shock; [7]) of the same molecule?
Answer: 8 mg/kg

Question: With `CN1C(=O)OC(C)(C)C1=O` [Trimethadion] as the molecule, how does the ED50 [3, 5] read?
Answer: 240 mg/kg

Question: What about the “times less active than substance A, clonic cramp test” value ([3]; clonic cramp test) of the same molecule?
Answer: more than 20 times

Question: And the ED50 [4, 6]?
Answer: 260 mg/kg

Question: What about the “times less active than substance A, tonic cramp test” value ([4]; tonic cramp test) of the same molecule?
Answer: more than 20 times

Question: What about the LD50 (in vivo) of the same molecule?
Answer: > 1000 mg/kg

Question: What about the ED50 (maximum electric shock; [7]) of the same molecule?
Answer: 450 mg/kg

Question: With `CCC1(c2ccccc2)C(=O)NC(=O)NC1=O` [Phenobarbital] as the molecule, how does the ED50 ([3]; po) read?
Answer: 30 mg/kg

Question: What about the ED50 ([4]; po) of the same molecule?
Answer: 22 mg/kg

Question: What about the “activity in tonic cramp induced by Pentetrazol, relative to substance A” value ([4]; in words) of the same molecule?
Answer: about twice as active

Question: And the LD50 (in vivo)?
Answer: 320 mg/kg

Question: What about the ED50 (maximum electric shock; po) of the same molecule?
Answer: 11 mg/kg

Question: What about the “activity in cramp induced by electric shock, relative to substance A” value (maximum electric shock; in words) of the same molecule?
Answer: about twice as active

Question: With `C[n+]1nc([S-])sc1-c1ccccc1F` as the molecule, how does the LD50 [1] read?
Answer: > 1000 mg/kg

Question: And the ED50 [2]?
Answer: 10 mg/kg

Question: Which LD50 [1] does the source give for `C[n+]1nc([S-])sc1-c1cccc(C(F)(F)F)c1` here?
Answer: 681 mg/kg

Question: And the ED50 [2]?
Answer: 0.46 mg/kg

Source: patent publication US4000147A, “Anhydro-2-mercapto-1,3,4-thiadiazolium hydroxides” (BASF Aktiengesellschaft, priority 1974, dated 1976)
